Experimental data reported in patent US12012392B2, “Sulfonamide carboxamide compounds” (Inflazome Limited, priority 2017, dated 2024).
Where two headings read alike, the source gives them in different places.

Assays:
NLRP3 [1] = molecular target: T1, NLRP3 (Homo sapiens, UniProt Q96P20); test: THP-1 cells pyroptosis assay; type: cell-based; set-up: Seed THP-1 cells (25,000 cells/well) containing 1.0 μg/ml LPS; host or cells: THP-1 cells, LPS-primed, nigericin-stimulated; conditions: LPS 1 μg/ml, nigericin 5 μM, resazurin read-out
T1 sequence (Q96P20 whole entry): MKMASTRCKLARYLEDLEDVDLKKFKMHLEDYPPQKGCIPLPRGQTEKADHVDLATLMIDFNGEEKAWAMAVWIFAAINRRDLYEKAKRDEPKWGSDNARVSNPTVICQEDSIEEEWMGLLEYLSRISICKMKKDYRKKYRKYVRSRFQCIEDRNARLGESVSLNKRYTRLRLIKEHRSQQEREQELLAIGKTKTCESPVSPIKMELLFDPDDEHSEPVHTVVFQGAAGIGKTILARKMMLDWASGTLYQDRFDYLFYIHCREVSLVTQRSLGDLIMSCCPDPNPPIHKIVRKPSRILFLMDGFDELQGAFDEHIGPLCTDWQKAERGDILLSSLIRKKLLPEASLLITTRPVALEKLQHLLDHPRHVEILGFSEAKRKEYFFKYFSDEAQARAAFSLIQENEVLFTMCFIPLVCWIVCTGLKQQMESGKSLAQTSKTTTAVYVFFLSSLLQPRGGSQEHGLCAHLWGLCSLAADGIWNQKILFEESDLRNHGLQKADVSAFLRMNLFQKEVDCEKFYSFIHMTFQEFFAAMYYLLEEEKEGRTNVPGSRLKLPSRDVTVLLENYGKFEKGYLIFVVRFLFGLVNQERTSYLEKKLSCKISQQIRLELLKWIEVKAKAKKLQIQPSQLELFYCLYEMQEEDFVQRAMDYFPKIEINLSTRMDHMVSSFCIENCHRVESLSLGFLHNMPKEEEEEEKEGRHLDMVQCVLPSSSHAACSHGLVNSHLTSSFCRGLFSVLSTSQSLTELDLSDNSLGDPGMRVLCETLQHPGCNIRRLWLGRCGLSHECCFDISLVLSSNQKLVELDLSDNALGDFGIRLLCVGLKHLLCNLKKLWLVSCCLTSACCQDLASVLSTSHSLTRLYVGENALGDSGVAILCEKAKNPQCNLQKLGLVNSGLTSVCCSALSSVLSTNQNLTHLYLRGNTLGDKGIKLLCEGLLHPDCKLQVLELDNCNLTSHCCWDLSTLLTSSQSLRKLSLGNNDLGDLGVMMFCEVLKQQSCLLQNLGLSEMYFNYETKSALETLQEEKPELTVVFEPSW
Procedure, shortened: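 THP-1 cells (25,000/well) primed with 1 μg/ml LPS in serum-free RPMI, given compound (8-point half-log, 10 μM top, 0.1% DMSO) for 3 hrs, then nigericin 5 μM for 1 hr at 37° C. Viability of remaining cells read by resazurin (100 μM, 1–2 hrs) fluorescence; IC50 from 4-parameter fit.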

[2] = PK protocol (intravenous and oral administration); type: in vivo, male Sprague Dawley rats; conditions: male, Sprague Dawley, plasma, rat; for Vd: read-out: Vdss
Description: Pharmacokinetic parameters were determined in male Sprague Dawley rats (Charles River, UK, 250-350 g; or Vital River Laboratory Animal Technology Co Ltd, Beijing, China, 7-9 weeks old). Animals were individually housed during the study and maintained under a 12 h light/dark cycle. Animals had free access to food and water except that some orally dosed animals were food deprived overnight prior to the study. For intravenous administration, compounds were formulated as a solution in water or DMSO:PBS [10:90] in 2 mL/kg dosing volume and administered via tail vein. For oral administration, compounds were formulated as a solution in water or DMSO:water [10:90] in 5 mL/kg dosing volume and administered orally.
Serial blood samples (about 120-300 μL) were taken from each animal at each of 8 time-points post dose (0.083, 0.25, 0.5, 1, 2, 4, 8 and 24 h) or at each of 12 time-points post dose (0.03, 0.1, 0.17, 0.25, 0.5, 1, 2, 4, 6, 8, 12 and 24 h) or pre-dose and at each of 9 time-points post dose (0.25, 0.5, 1, 2, 4, 6, 8, 12 and 24 h). Samples were held on ice for no longer than 30 minutes before centrifugation (10,000 rpm (8,385 g) for 3 minutes; or 5,696 rpm (3,000 g) for 15 minutes) for plasma generation. Plasma was frozen on dry ice prior to bioanalysis. PK parameters were generated from LC-MS/MS data using Dotmatics or Phoenix WinNonlin 6.3 software.

NLRP3 [3] = molecular target: T1, NLRP3; test: Human whole blood IL1β release assay; type: cell-based; set-up: Plate out 80 μl of whole blood containing 1 μg/ml of LPS; from tissue; host or cells: human whole blood from healthy donors, LPS-primed, nigericin-stimulated; conditions: LPS 1 μg/ml, nigericin 10 μM, IL-1β AlphaLisa, read-out: HWB IC50
Description: For systemic delivery, the ability to inhibit NLRP3 when the compounds are present within the bloodstream is of great importance. For this reason, the NLRP3 inhibitory activity of a number of compounds in human whole blood was investigated in accordance with the following protocol.
Human whole blood in Li-heparin tubes was obtained from healthy donors from a volunteer donor panel. • 1. Plate out 80 μl of whole blood containing 1 μg/ml of LPS in 96-well, clear bottom cell culture plate (Corning #3585) • 2. Add […] compound (8 points half-log dilution with 10 μM top dose) or vehicle (DMSO 0.1% FAC) to the appropriate wells • 3. Incubate for 3 hrs at 37° C., 5% CO2 • 4. Add 10 μl Nigericin (Sigma #N7143) (10 μM FAC) to all wells • 5. Incubate for 1 hr at 37° C., 5 CO2 • 6. At the end of the incubation period, spin plates at 300×g for 5 mins to pellet cells and remove 20 μl of supernatant and add to 96-well v-bottom plates for […] analysis (note: these plates containing the supernatants can be stored at −80° C. to be analysed at a later date) • 7. IL-1β was measured according to the manufacturer protocol (Perkin Elmer-AlphaLisa IL-1 Kit AL220F-5000) • 8. IC50 data is fitted to anon-linear regression equation (log inhibitor vs response-variable slope 4-parameters)

| Compound | IC50 (NLRP3 [1]) [nM] | AUC ([2]; intravenous, dose 1 mg/kg) [ng·h/mL] | clearance ([2]; intravenous, dose 1 mg/kg) [mL/min/kg] | half-life ([2]; intravenous, dose 1 mg/kg) [h] | Vd ([2]; intravenous, dose 1 mg/kg) [L/kg] | IC50 (NLRP3 [3]) [nM] | AUC ([2]; intravenous, dose 1.74 mg/kg) [ng·h/mL] | clearance ([2]; intravenous, dose 1.74 mg/kg) [mL/min/kg] | half-life ([2]; intravenous, dose 1.74 mg/kg) [h] | Vd ([2]; intravenous, dose 1.74 mg/kg) [L/kg] | AUC ([2]; oral, dose 3 mg/kg) [ng·h/mL] | CL/F ([2]; oral, dose 3 mg/kg) [mL/min/kg] | Cmax ([2]; oral, dose 3 mg/kg) [ng/mL] | Tmax ([2]; oral, dose 3 mg/kg) [h] | bioavailability ([2]; oral, dose 3 mg/kg) [%] | half-life ([2]; oral, dose 3 mg/kg) [h] |
| --- | --- | --- | --- | --- | --- | --- | --- | --- | --- | --- | --- | --- | --- | --- | --- | --- |
| CC(O)C(C)n1ccc(S(=O)(=O)NC(=O)Nc2c3c(cc4c2CCC4)CCC3)n1 (racemic) [Example 23, N-((1,2,3,5,6,7-Hexahydro-s-indacen-4-yl)carbamoyl)-1-(3-hydroxybutan-2-yl)-1H-pyrazole-3-sulfonamide] | 40 to 160 | 20100 | 0.8 | 2.6 | 0.12 | < 400 |  |  |  |  |  |  |  |  |  |  |
| CC(O)C(C)n1ccc(S(=O)(=O)NC(=O)Nc2c3c(cc4c2CCC4)CCC3)n1 (racemic) [Example 26, N-((1,2,3,5,6,7-Hexahydro-s-indacen-4-yl)carbamoyl)-1-(3-hydroxybutan-2-yl)-1H-pyrazole-3-sulfonamide] | 40 to 160 |  |  |  |  | < 400 | 8060 | 4.2 | 3.6 | 0.6 |  |  |  |  |  |  |
| O=C(Nc1c2c(cc3c1CCC3)CCC2)NS(=O)(=O)c1ccn(C2CCOC2)n1 (stereo not drawn) [Example 1, N-((1,2,3,5,6,7-Hexahydro-s-indacen-4-yl)carbamoyl)-1-(tetrahydrofuran-3-yl)-1H-pyrazole-3-sulfonamide] | 160 to 640 | 8620 | 1.9 | 3.4 | 0.43 | 800 to 1600 |  |  |  |  |  |  |  |  |  |  |
| COCCn1ccc(S(=O)(=O)NC(=O)Nc2c3c(cc4c2CCC4)CCC3)n1 [Example 2, N-((1,2,3,5,6,7-Hexahydro-s-indacen-4-yl)carbamoyl)-1-(2-methoxyethyl)-1H-pyrazole-3-sulfonamide] | 160 to 640 | 1030 | 16.2 | 0.3 | 0.3 | 800 to 1600 |  |  |  |  |  |  |  |  |  |  |
| O=C(Nc1c2c(cc3c1CCC3)CCC2)NS(=O)(=O)c1ccn(CC2CCCO2)n1 (stereo not drawn) [Example 3, N-((1,2,3,5,6,7-Hexahydro-s-indacen-4-yl)carbamoyl)-1-((tetrahydrofuran-2-yl)methyl)-1H-pyrazole-3-sulfonamide] | 40 to 160 | 3680 | 4.5 | 6.7 | 1.57 | 800 to 1600 |  |  |  |  |  |  |  |  |  |  |
| CC(C)(O)Cn1ccc(S(=O)(=O)NC(=O)Nc2c3c(cc4c2CCC4)CCC3)n1 [Example 10, N-((1,2,3,5,6,7-Hexahydro-s-indacen-4-yl)carbamoyl)-1-(2-hydroxy-2-methylpropyl)-1H-pyrazole-3-sulfonamide] | 40 to 160 | 4290 | 3.9 | 2.9 | 0.61 | 400 to 800 |  |  |  |  | 9660 | 5.2 | 1770 | 0.29 | 75 | 3.5 |
| C[C@H](O)Cn1ccc(S(=O)(=O)NC(=O)Nc2c3c(cc4c2CCC4)CCC3)n1 [Example 11, (S)—N-((1,2,3,5,6,7-Hexahydro-s-indacen-4-yl)carbamoyl)-1-(2-hydroxypropyl)-1H-pyrazole-3-sulfonamide] | 40 to 160 | 7380 | 2.3 | 2.9 | 0.36 | < 400 |  |  |  |  |  |  |  |  |  |  |
| C[C@H](CO)n1ccc(S(=O)(=O)NC(=O)Nc2c3c(cc4c2CCC4)CCC3)n1 [Example 13, (R)—N-((1,2,3,5,6,7-Hexahydro-s-indacen-4-yl)carbamoyl)-1-(1-hydroxypropan-2-yl)-1H-pyrazole-3-sulfonamide] | 160 to 640 | 38700 | 0.4 | 3.6 | 0.09 | < 400 |  |  |  |  |  |  |  |  |  |  |
| C[C@@H](O)Cn1ccc(S(=O)(=O)NC(=O)Nc2c3c(cc4c2CCC4)CCC3)n1 [Example 16, (R)—N-((1,2,3,5,6,7-Hexahydro-s-indacen-4-yl)carbamoyl)-1-(2-hydroxypropyl)-1H-pyrazole-3-sulfonamide] | 40 to 160 | 10200 | 1.8 | 3.8 | 0.41 | 400 to 800 |  |  |  |  | 19600 | 2.6 | 3960 | 0.83 | 63.8 | 3.2 |
| O=C(Nc1c2c(cc3c1CCC3)CCC2)NS(=O)(=O)c1ccn(C2(CO)CCC2)n1 [Example 24, N-((1,2,3,5,6,7-Hexahydro-s-indacen-4-yl)carbamoyl)-1-(1-(hydroxymethyl)cyclobutyl)-1H-pyrazole-3-sulfonamide] | 40 to 160 | 7030 | 2.4 | 3.5 | 0.37 | < 400 |  |  |  |  |  |  |  |  |  |  |
| COC1(c2cc(S(=O)(=O)NC(=O)Nc3c4c(cc5c3CCC5)CCC4)nn2C2CC2)COC1 [Example 38, 1-Cyclopropyl-N-((1,2,3,5,6,7-hexahydro-s-indacen-4-yl)carbamoyl)-5-(3-methoxyoxetan-3-yl)-1H-pyrazole-3-sulfonamide] | < 40 | 3880 | 4.6 | 1.1 | 0.35 | < 400 |  |  |  |  |  |  |  |  |  |  |
